Test results published in patent publication US11413291B2, “Pesticidally active heterocyclic derivatives with sulfur containing substituents” (SYNGENTA PARTICIPATIONS AG, priority 2017, dated 2022).

Tests used:
Type in all cases: in vivo
Plutella xylostella = experiment: Example B3: Plutella xylostella, artificial diet; conditions: 120 h, application rate 200 ppm, L2 larvae, 5 days after infestation, read-out: effect in at least one of the two categories (mortality or growth inhibition)
Procedure: (§1) 24-well microtiter plates with artificial diet were treated with aqueous test solutions prepared from 10,000 ppm DMSO stock solutions by pipetting. After drying, the plates were infested with L2 larvae (10 to 15 per well). The samples were assessed for mortality and growth inhibition in comparison to untreated samples 5 days after infestation.

Myzus persicae [1] = experiment: Example B5: Myzus persicae feeding/contact, sprayed sunflower leaf discs; conditions: foliar; for mortality at 200 ppm: Myzus persicae, 144 h, application rate 200 ppm, mixed ages, 6 days after infestation; for mortality at 12.5 ppm: Myzus persicae (B5), concentration 12.5 ppm
Procedure: Sunflower leaf discs were placed onto agar in a 24-well microtiter plate and sprayed with aqueous test solutions prepared from 10,000 ppm DMSO stock solutions. After drying, the leaf discs were infested with an aphid population of mixed ages. The samples were assessed for mortality 6 days after infestation.

Myzus persicae [2] = experiment: Example B6: Myzus persicae systemic, pea seedling roots in test solution; conditions: for mortality at 24 ppm: Myzus persicae, 144 h, test rate 24 ppm, mixed ages, 6 days; for mortality at 6 ppm: Myzus persicae (B6), concentration 6 ppm
Procedure: Roots of pea seedlings infested with an aphid population of mixed ages were placed directly into aqueous test solutions prepared from 10,000 DMSO stock solutions. The samples were assessed for mortality 6 days after placing seedlings into test solutions.

Diabrotica balteata = experiment: Example B4: Diabrotica balteata, sprayed maize sprouts; conditions: 96 h, application rate 200 ppm, L2 larvae, 4 days after infestation, read-out: effect in at least one of the two categories (mortality or growth inhibition)
Procedure: as §1, with “Maize sprouts placed onto an agar layer in 24-well” for “24-well”, “plates” for “plates with artificial diet”, “spraying.” for “pipetting.”, “(6” for “(10”, “10” for “15”, “4” for “5”

Bemisia tabaci = experiment: Example B7: Bemisia tabaci, sprayed cotton leaf discs; conditions: foliar, 144 h, application rate 200 ppm, adult white flies, 6 days after incubation
Procedure: Cotton leaf discs were placed on agar in 24-well microtiter plates and sprayed with aqueous test solutions prepared from 10,000 ppm DMSO stock solutions. After drying the leaf discs were infested with adult white flies. The samples were checked for mortality 6 days after incubation.

Spodoptera littoralis = experiment: Example B1: Spodoptera littoralis, sprayed cotton leaf discs; conditions: foliar, 72 h, application rate 200 ppm, L1 larvae, 3 days after infestation
Procedure: Cotton leaf discs were placed onto agar in 24-well microtiter plates and sprayed with aqueous test solutions prepared from 10′000 ppm DMSO stock solutions. After drying the leaf discs were infested with five L1 larvae. The samples were assessed for mortality, anti-feeding effect, and growth inhibition in comparison to untreated samples 3 days after infestation. Control of Spodoptera littoralis by a test sample is given when at least one of the categories mortality, anti-feedant effect, and growth inhibition is higher than the untreated sample.

Tetranychus urticae = experiment: Example B10: Tetranychus urticae, sprayed bean leaf discs; conditions: foliar, 192 h, application rate 200 ppm, mixed population (mobile stages), 8 days after infestation
Procedure: Bean leaf discs on agar in 24-well microtiter plates were sprayed with aqueous test solutions prepared from 10,000 ppm DMSO stock solutions. After drying the leaf discs were infested with a mite population of mixed ages. The samples were assessed for mortality on mixed population (mobile stages) 8 days after infestation.

Euschistus heros = experiment: Example B8: Euschistus heros, sprayed soybean leaves; conditions: for mortality at 0.8 ppm: Euschistus heros (B8), concentration 0.8 ppm; for percent effect (mortality or growth inhibition) at 200 ppm: Euschistus heros, 120 h, application rate 200 ppm, N2 nymphs, 5 days after infestation, read-out: effect in at least one of the two categories (mortality or growth inhibition)
Procedure: Soybean leaves on agar in 24-well microtiter plates were sprayed with aqueous test solutions prepared from 10,000 ppm DMSO stock solutions. After drying the leaves were infested with N2 nymphs. The samples were assessed for mortality and growth inhibition in comparison to untreated samples 5 days after infestation.

[3] = test system: Frankliniella occidentalis; experiment: Example B11: Frankliniella occidentalis, sprayed sunflower leaf discs; conditions: foliar, 168 h, application rate 200 ppm, mixed ages, 7 days after infestation
Procedure: Sunflower leaf discs were placed on agar in 24-well microtiter plates and sprayed with aqueous test solutions prepared from 10,000 DMSO stock solutions. After drying the leaf discs were infested with a Frankliniella population of mixed ages. The samples were assessed for mortality 7 days after infestation.

CCS(=O)(=O)c1cc(C(C)(C)C#N)cnc1-c1cn2cnc([S+]([O-])C(F)F)cc2n1 (stereo not drawn) [Compound P16, 2-[6-[7-(difluoromethylsulfinyl)imidazo[1,2-c]pyrimidin-2-yl]-5-ethylsulfonyl-3-pyridyl]-2-methyl-propanenitrile]
percent effect (mortality or growth inhibition) at 200 ppm (Plutella xylostella): ≥ 80% | mortality at 200 ppm (Myzus persicae [1]): ≥ 80% | mortality at 24 ppm (Myzus persicae [2]): ≥ 80%

CCS(=O)(=O)c1cc(C(C)(C)C#N)ccc1-c1cn2cnc(C(F)(F)F)cc2n1 [Compound P20, 2-[3-ethylsulfonyl-4-[7-(trifluoromethyl)imidazo[1,2-c]pyrimidin-2-yl]phenyl]-2-methyl-propanenitrile]
percent effect (mortality or growth inhibition) at 200 ppm (Plutella xylostella): ≥ 80% | percent effect (mortality or growth inhibition) at 200 ppm (Diabrotica balteata): ≥ 80% | mortality at 200 ppm (Myzus persicae [1]): ≥ 80% | mortality at 200 ppm (Bemisia tabaci): ≥ 80%

CCS(=O)(=O)c1cc(C(C)(C)C#N)cnc1-c1cn2ccc(C(F)(F)F)cc2n1 [Compound P9, 2-[5-ethylsulfonyl-6-[7-(trifluoromethyl)imidazo[1,2-a]pyridin-2-yl]-3-pyridyl]-2-methyl-propanenitrile]
percent control (mortality, anti-feedant effect or growth inhibition) at 200 ppm (Spodoptera littoralis): ≥ 80% | percent effect (mortality or growth inhibition) at 200 ppm (Plutella xylostella): ≥ 80% | percent effect (mortality or growth inhibition) at 200 ppm (Diabrotica balteata): ≥ 80% | mortality at 200 ppm (Myzus persicae [1]): ≥ 80% | mortality at 200 ppm (Tetranychus urticae): ≥ 80%

CCn1c(C(F)(F)F)cc2nc(-c3ccc(C(C)(C)C#N)cc3S(=O)(=O)CC)n(C)c2c1=O [Compound P13, 2-[4-[5-ethyl-3-methyl-4-oxo-6-(trifluoromethyl)imidazo[4,5-c]pyridin-2-yl]-3-ethylsulfonyl-phenyl]-2-methyl-propanenitrile]
percent control (mortality, anti-feedant effect or growth inhibition) at 200 ppm (Spodoptera littoralis): ≥ 80% | percent effect (mortality or growth inhibition) at 200 ppm (Plutella xylostella): ≥ 80% | percent effect (mortality or growth inhibition) at 200 ppm (Diabrotica balteata): ≥ 80% | mortality at 200 ppm (Bemisia tabaci): ≥ 80%

CCS(=O)(=O)c1cc(C(C)(C)C#N)ccc1-c1cn2ccc(C(F)(F)F)cc2n1 [Compound P19, 2-[3-ethylsulfonyl-4-[7-(trifluoromethyl)imidazo[1,2-a]pyridin-2-yl]phenyl]-2-methyl-propanenitrile]
percent control (mortality, anti-feedant effect or growth inhibition) at 200 ppm (Spodoptera littoralis): ≥ 80% | percent effect (mortality or growth inhibition) at 200 ppm (Plutella xylostella): ≥ 80% | percent effect (mortality or growth inhibition) at 200 ppm (Diabrotica balteata): ≥ 80% | mortality at 200 ppm (Bemisia tabaci): ≥ 80%

CCS(=O)(=O)c1cc(C(C)(C)C#N)cnc1-c1cn2cnc(S(=O)(=O)C(F)F)cc2n1 [Compound P15, 2-[6-[7-(difluoromethylsulfonyl)imidazo[1,2-c]pyrimidin-2-yl]-5-ethylsulfonyl-3-pyridyl]-2-methyl-propanenitrile]
percent effect (mortality or growth inhibition) at 200 ppm (Plutella xylostella): ≥ 80% | mortality at 200 ppm (Myzus persicae [1]): ≥ 80% | mortality at 24 ppm (Myzus persicae [2]): ≥ 80%

CCS(=O)(=O)c1cc(C(C)(C)C#N)cnc1-c1cn2cnc(C(F)(F)F)cc2n1 [Compound P1, 2-[5-ethylsulfonyl-6-[7-(trifluoromethyl)imidazo[1,2-c]pyrimidin-2-yl]-3-pyridyl]-2-methyl-propanenitrile]
percent control (mortality, anti-feedant effect or growth inhibition) at 200 ppm (Spodoptera littoralis): ≥ 80% | percent effect (mortality or growth inhibition) at 200 ppm (Plutella xylostella): ≥ 80% | percent effect (mortality or growth inhibition) at 200 ppm (Diabrotica balteata): ≥ 80% | mortality at 200 ppm (Myzus persicae [1]): ≥ 80% | mortality at 12.5 ppm (Myzus persicae [1]): 100% | mortality at 6 ppm (Myzus persicae [2]): 100% | mortality at 24 ppm (Myzus persicae [2]): ≥ 80% | mortality at 200 ppm (Bemisia tabaci): ≥ 80% | mortality at 0.8 ppm (Euschistus heros): 100% | percent effect (mortality or growth inhibition) at 200 ppm (Euschistus heros): ≥ 80% | mortality at 200 ppm (Tetranychus urticae): ≥ 80%

CCS(=O)(=O)c1cc(C(C)(C)C#N)cnc1-c1cn2ncc(C(F)(F)F)cc2n1 [Compound P8, 2-[5-ethylsulfonyl-6-[7-(trifluoromethyl)imidazo[1,2-b]pyridazin-2-yl]-3-pyridyl]-2-methyl-propanenitrile]
percent control (mortality, anti-feedant effect or growth inhibition) at 200 ppm (Spodoptera littoralis): ≥ 80% | percent effect (mortality or growth inhibition) at 200 ppm (Plutella xylostella): ≥ 80% | percent effect (mortality or growth inhibition) at 200 ppm (Diabrotica balteata): ≥ 80% | mortality at 200 ppm (Myzus persicae [1]): ≥ 80% | mortality at 24 ppm (Myzus persicae [2]): ≥ 80% | mortality at 200 ppm (Bemisia tabaci): ≥ 80% | percent effect (mortality or growth inhibition) at 200 ppm (Euschistus heros): ≥ 80%

CCS(=O)(=O)c1cc(C(C)(C)C#N)cnc1-c1cn2cnc(SC(F)F)cc2n1 [Compound P14, 2-[6-[7-(difluoromethylsulfanyl)imidazo[1,2-c]pyrimidin-2-yl]-5-ethylsulfonyl-3-pyridyl]-2-methyl-propanenitrile]
percent control (mortality, anti-feedant effect or growth inhibition) at 200 ppm (Spodoptera littoralis): ≥ 80% | percent effect (mortality or growth inhibition) at 200 ppm (Plutella xylostella): ≥ 80% | percent effect (mortality or growth inhibition) at 200 ppm (Diabrotica balteata): ≥ 80% | mortality at 200 ppm (Myzus persicae [1]): ≥ 80% | mortality at 200 ppm (Bemisia tabaci): ≥ 80% | percent effect (mortality or growth inhibition) at 200 ppm (Euschistus heros): ≥ 80%

CCSc1cc(C(C)(C)C#N)cnc1-c1nc2cc(C(F)(F)F)n(CC(F)(F)F)c(=O)c2n1C [Compound P10, 2-[5-ethylsulfanyl-6-[3-methyl-4-oxo-5-(2,2,2-trifluoroethyl)-6-(trifluoromethyl)imidazo[4,5-c]pyridin-2-yl]-3-pyridyl]-2-methyl-propanenitrile]
percent effect (mortality or growth inhibition) at 200 ppm (Plutella xylostella): ≥ 80% | percent effect (mortality or growth inhibition) at 200 ppm (Diabrotica balteata): ≥ 80% | mortality at 200 ppm (Myzus persicae [1]): ≥ 80% | mortality at 200 ppm (Bemisia tabaci): ≥ 80%

CCS(=O)(=O)c1cc(C(C)(C)C#N)cnc1-c1nc2cc(C(F)(F)F)n(CC(F)(F)F)c(=O)c2n1C [Compound P11, 2-[5-ethylsulfonyl-6-[3-methyl-4-oxo-5-(2,2,2-trifluoroethyl)-6-(trifluoromethyl)imidazo[4,5-c]pyridin-2-yl]-3-pyridyl]-2-methyl-propanenitrile]
percent control (mortality, anti-feedant effect or growth inhibition) at 200 ppm (Spodoptera littoralis): ≥ 80% | percent effect (mortality or growth inhibition) at 200 ppm (Plutella xylostella): ≥ 80% | percent effect (mortality or growth inhibition) at 200 ppm (Diabrotica balteata): ≥ 80% | mortality at 200 ppm (Myzus persicae [1]): ≥ 80% | mortality at 200 ppm (Bemisia tabaci): ≥ 80% | mortality at 200 ppm [3]: ≥ 80%

CCS(=O)(=O)c1cc(C(C)(C)C#N)cnc1-c1cn2ccc(SC(F)F)cc2n1 [Compound P5, 2-[6-[7-(difluoromethylsulfanyl)imidazo[1,2-a]pyridin-2-yl]-5-ethylsulfonyl-3-pyridyl]-2-methyl-propanenitrile]
percent control (mortality, anti-feedant effect or growth inhibition) at 200 ppm (Spodoptera littoralis): ≥ 80% | percent effect (mortality or growth inhibition) at 200 ppm (Diabrotica balteata): ≥ 80% | mortality at 200 ppm (Myzus persicae [1]): ≥ 80% | mortality at 200 ppm (Bemisia tabaci): ≥ 80%

CCS(=O)(=O)c1cc(C2(C#N)CC2)cnc1-c1cn2cnc(C(F)(F)F)cc2n1 [reference compound]
mortality at 12.5 ppm (Myzus persicae [1]): 0% | mortality at 6 ppm (Myzus persicae [2]): 0% | mortality at 0.8 ppm (Euschistus heros): 0%

CCSc1cc(C(C)(C)C#N)cnc1-c1nc2cc(C(F)(F)F)n(C3CC3)c(=O)c2n1C [Compound P18, 2-[6-[5-cyclopropyl-3-methyl-4-oxo-6-(trifluoromethyl)imidazo[4,5-c]pyridin-2-yl]-5-ethylsulfanyl-3-pyridyl]-2-methyl-propanenitrile]
percent control (mortality, anti-feedant effect or growth inhibition) at 200 ppm (Spodoptera littoralis): ≥ 80% | percent effect (mortality or growth inhibition) at 200 ppm (Plutella xylostella): ≥ 80% | percent effect (mortality or growth inhibition) at 200 ppm (Diabrotica balteata): ≥ 80% | mortality at 200 ppm (Myzus persicae [1]): ≥ 80% | mortality at 200 ppm (Tetranychus urticae): ≥ 80%

CCS(=O)(=O)c1cc(C(C)(C)C#N)cnc1-n1cc2cnc(C(F)(F)F)cc2n1 [Compound P2, 2-[5-ethylsulfonyl-6-[6-(trifluoromethyl)pyrazolo[4,3-c]pyridin-2-yl]-3-pyridyl]-2-methyl-propanenitrile]
percent control (mortality, anti-feedant effect or growth inhibition) at 200 ppm (Spodoptera littoralis): ≥ 80% | percent effect (mortality or growth inhibition) at 200 ppm (Plutella xylostella): ≥ 80% | percent effect (mortality or growth inhibition) at 200 ppm (Diabrotica balteata): ≥ 80% | mortality at 200 ppm (Myzus persicae [1]): ≥ 80% | mortality at 200 ppm (Bemisia tabaci): ≥ 80% | percent effect (mortality or growth inhibition) at 200 ppm (Euschistus heros): ≥ 80%
